# Laboratory results taken from patent publication US20260137642A1 (CANCER PREVENTION PHARMACEUTICALS, INC., priority 2021, published 2026).
# Legend:
# [1] = Phase I/II trial in new onset T1D: adverse events judged possibly or probably related to drug; type: in vivo, human; conditions: for Adverse events possibly or probably related to drug: Abdominal Pain / Adverse events possibly or probably related to drug: Congestion / Adverse events possibly or probably related to drug: Cough / Adverse events possibly or probably related to drug: Diarrhea / Adverse events possibly or probably related to drug: Dizziness / Adverse events possibly or probably related to drug: Gastrointestinal (Total) / Adverse events possibly or probably related to drug: Hematologic, Anemia / Adverse events possibly or probably related to drug: Hot flashes associated with viral illness / Adverse events possibly or probably related to drug: Nausea / Adverse events possibly or probably related to drug: Nausea with IV placement / Adverse events possibly or probably related to drug: Neurologic, Headache / Adverse events possibly or probably related to drug: Other Viral Illness / Adverse events possibly or probably related to drug: Other infectious/immune, Pump site infection / Adverse events possibly or probably related to drug: Other, Hypoglycemia / Adverse events possibly or probably related to drug: Other, Urticaria/anaphylaxis / Adverse events possibly or probably related to drug: URI / Adverse events possibly or probably related to drug: Vomiting / Adverse events possibly or probably related to drug: Hematologic, Grade 1 Neutropenia: daily oral; for Adverse events possibly or probably related to drug: Hematologic, Grade 1 Neutropenia: neutrophil count < lower limit of normal but above 1500/mm^3
# Source text: The primary efficacy measure was changes in pro-insulin to C-peptide ratios as a marker of β cell ER stress. The secondary objectives of the study were to elucidate the relationship between primary dose and markers of endoplasmic reticulum (ER) stress, polyamine concentrations, glycemic, and immunologic outcomes in persons with new onset T1D, and to characterize the dietary polyamine intake and urinary polyamine excretion of persons with recent-onset T1D. Secondary efficacy measures included other biomarkers of β cell stress, stimulated C-peptide values, and changes in T-cell subsets. This study was double-blind, placebo-controlled, 2:1 random assigned, phase I/II clinic trial for individuals with type 1 diabetes. The blinded dose-ranging study enrolled persons with new onset T1D with documented continued residual C-peptide production. […] After a 3 month wash-out period, the durability of effect was assessed. […] Males and females 12-40 years of age with a clinical diagnosis of T1D within 2-8 months of the time of visit 2; 2. […] Positive for any one of the following diabetes-related autoantibodies (mIAA, GADA, IA-2A, or ZnT8A); 4. Treatment naïve of any immunomodulatory agent; 5. […] Presence of any psychiatric disorder that will affect ability to participate in study, including psychiatric impairment or current use of anti-psychotic medication; 3. […] Chronic illness known to affect glucose metabolism (e.g. Cushing syndrome, polycystic ovarian disorder, cystic fibrosis) or taking medications that affect glucose metabolism (e.g. steroids, metformin); 5. Inability to swallow pills; 6. Hematologic abnormalities at screening (anemia, leukopenia (particularly neutropenia), or thrombocytopenia); 7. […] Female participants of child-bearing age must not be pregnant and agree to use an effective form of birth control or be abstinent during the study period; 9. BMI >95% for age and sex. […] The enrollment cohorts were as follows: […] [table] […] Possible drug-related expected AEs included mild-moderate nausea/vomiting/abdominal pain and diarrhea, moderate headache, upper respiratory infections, a pump site infection, and mild anemia. […] Adverse events judges by masked study investigators as possibly or probably related to drug are showing in Table 3.
# islet replication = conditions: in vitro; cited from earlier work
compound,measurement,setting,value
"NCCCC(N)(C(=O)O)C(F)F (stereo not shown) [eflornithine, 2,5-diamino-2-(difluoromethyl) pentanoic acid]",Adverse events possibly or probably related to drug: Abdominal Pain,[1]; 125 mg/m^2 (n = 6),1
same,Adverse events possibly or probably related to drug: Congestion,[1]; 125 mg/m^2 (n = 6),0
same,Adverse events possibly or probably related to drug: Cough,[1]; 125 mg/m^2 (n = 6),0
same,Adverse events possibly or probably related to drug: Diarrhea,[1]; 125 mg/m^2 (n = 6),0
same,Adverse events possibly or probably related to drug: Dizziness,[1]; 125 mg/m^2 (n = 6),0
same,Adverse events possibly or probably related to drug: Gastrointestinal (Total),[1]; 125 mg/m^2 (n = 6),1
same,"Adverse events possibly or probably related to drug: Hematologic, Anemia",[1]; 125 mg/m^2 (n = 6),0
same,Adverse events possibly or probably related to drug: Hot flashes associated with viral illness,[1]; 125 mg/m^2 (n = 6),0
same,Adverse events possibly or probably related to drug: Nausea,[1]; 125 mg/m^2 (n = 6),0
same,Adverse events possibly or probably related to drug: Nausea with IV placement,[1]; 125 mg/m^2 (n = 6),0
same,"Adverse events possibly or probably related to drug: Neurologic, Headache",[1]; 125 mg/m^2 (n = 6),1
same,Adverse events possibly or probably related to drug: Other Viral Illness,[1]; 125 mg/m^2 (n = 6),0
same,"Adverse events possibly or probably related to drug: Other infectious/immune, Pump site infection",[1]; 125 mg/m^2 (n = 6),0
same,"Adverse events possibly or probably related to drug: Other, Hypoglycemia",[1]; 125 mg/m^2 (n = 6),0
same,"Adverse events possibly or probably related to drug: Other, Urticaria/anaphylaxis",[1]; 125 mg/m^2 (n = 6),0
same,Adverse events possibly or probably related to drug: URI,[1]; 125 mg/m^2 (n = 6),0
same,Adverse events possibly or probably related to drug: Vomiting,[1]; 125 mg/m^2 (n = 6),1
same,"Adverse events possibly or probably related to drug: Hematologic, Grade 1 Neutropenia",[1]; 125 mg/m^2 (n = 6),1
same,Adverse events possibly or probably related to drug: Abdominal Pain,[1]; 250 mg/m^2 (n = 6),0
same,Adverse events possibly or probably related to drug: Congestion,[1]; 250 mg/m^2 (n = 6),0
same,Adverse events possibly or probably related to drug: Cough,[1]; 250 mg/m^2 (n = 6),0
same,Adverse events possibly or probably related to drug: Diarrhea,[1]; 250 mg/m^2 (n = 6),1
same,Adverse events possibly or probably related to drug: Dizziness,[1]; 250 mg/m^2 (n = 6),0
same,Adverse events possibly or probably related to drug: Gastrointestinal (Total),[1]; 250 mg/m^2 (n = 6),1
same,"Adverse events possibly or probably related to drug: Hematologic, Anemia",[1]; 250 mg/m^2 (n = 6),0
same,Adverse events possibly or probably related to drug: Hot flashes associated with viral illness,[1]; 250 mg/m^2 (n = 6),0
same,Adverse events possibly or probably related to drug: Nausea,[1]; 250 mg/m^2 (n = 6),0
same,Adverse events possibly or probably related to drug: Nausea with IV placement,[1]; 250 mg/m^2 (n = 6),0
same,"Adverse events possibly or probably related to drug: Neurologic, Headache",[1]; 250 mg/m^2 (n = 6),0
same,Adverse events possibly or probably related to drug: Other Viral Illness,[1]; 250 mg/m^2 (n = 6),0
same,"Adverse events possibly or probably related to drug: Other infectious/immune, Pump site infection",[1]; 250 mg/m^2 (n = 6),0
same,"Adverse events possibly or probably related to drug: Other, Hypoglycemia",[1]; 250 mg/m^2 (n = 6),0
same,"Adverse events possibly or probably related to drug: Other, Urticaria/anaphylaxis",[1]; 250 mg/m^2 (n = 6),0
same,Adverse events possibly or probably related to drug: URI,[1]; 250 mg/m^2 (n = 6),0
same,Adverse events possibly or probably related to drug: Vomiting,[1]; 250 mg/m^2 (n = 6),0
same,"Adverse events possibly or probably related to drug: Hematologic, Grade 1 Neutropenia",[1]; 250 mg/m^2 (n = 6),0
same,Adverse events possibly or probably related to drug: Abdominal Pain,[1]; 500 mg/m^2 (n = 6),0
same,Adverse events possibly or probably related to drug: Congestion,[1]; 500 mg/m^2 (n = 6),0
same,Adverse events possibly or probably related to drug: Cough,[1]; 500 mg/m^2 (n = 6),0
same,Adverse events possibly or probably related to drug: Diarrhea,[1]; 500 mg/m^2 (n = 6),0
same,Adverse events possibly or probably related to drug: Dizziness,[1]; 500 mg/m^2 (n = 6),0
same,Adverse events possibly or probably related to drug: Gastrointestinal (Total),[1]; 500 mg/m^2 (n = 6),0
same,"Adverse events possibly or probably related to drug: Hematologic, Anemia",[1]; 500 mg/m^2 (n = 6),0
same,Adverse events possibly or probably related to drug: Hot flashes associated with viral illness,[1]; 500 mg/m^2 (n = 6),0
same,Adverse events possibly or probably related to drug: Nausea,[1]; 500 mg/m^2 (n = 6),0
same,Adverse events possibly or probably related to drug: Nausea with IV placement,[1]; 500 mg/m^2 (n = 6),0
same,"Adverse events possibly or probably related to drug: Neurologic, Headache",[1]; 500 mg/m^2 (n = 6),0
same,Adverse events possibly or probably related to drug: Other Viral Illness,[1]; 500 mg/m^2 (n = 6),0
same,"Adverse events possibly or probably related to drug: Other infectious/immune, Pump site infection",[1]; 500 mg/m^2 (n = 6),0
same,"Adverse events possibly or probably related to drug: Other, Hypoglycemia",[1]; 500 mg/m^2 (n = 6),1
same,"Adverse events possibly or probably related to drug: Other, Urticaria/anaphylaxis",[1]; 500 mg/m^2 (n = 6),0
same,Adverse events possibly or probably related to drug: URI,[1]; 500 mg/m^2 (n = 6),0
same,Adverse events possibly or probably related to drug: Vomiting,[1]; 500 mg/m^2 (n = 6),0
same,"Adverse events possibly or probably related to drug: Hematologic, Grade 1 Neutropenia",[1]; 500 mg/m^2 (n = 6),0
same,Adverse events possibly or probably related to drug: Abdominal Pain,[1]; 750 mg/m^2 (n = 7),2
same,Adverse events possibly or probably related to drug: Congestion,[1]; 750 mg/m^2 (n = 7),2
same,Adverse events possibly or probably related to drug: Cough,[1]; 750 mg/m^2 (n = 7),0
same,Adverse events possibly or probably related to drug: Diarrhea,[1]; 750 mg/m^2 (n = 7),0
same,Adverse events possibly or probably related to drug: Dizziness,[1]; 750 mg/m^2 (n = 7),2
same,Adverse events possibly or probably related to drug: Gastrointestinal (Total),[1]; 750 mg/m^2 (n = 7),5
same,"Adverse events possibly or probably related to drug: Hematologic, Anemia",[1]; 750 mg/m^2 (n = 7),1
same,Adverse events possibly or probably related to drug: Hot flashes associated with viral illness,[1]; 750 mg/m^2 (n = 7),0
same,Adverse events possibly or probably related to drug: Nausea,[1]; 750 mg/m^2 (n = 7),3
same,Adverse events possibly or probably related to drug: Nausea with IV placement,[1]; 750 mg/m^2 (n = 7),1
same,"Adverse events possibly or probably related to drug: Neurologic, Headache",[1]; 750 mg/m^2 (n = 7),0
same,Adverse events possibly or probably related to drug: Other Viral Illness,[1]; 750 mg/m^2 (n = 7),1
same,"Adverse events possibly or probably related to drug: Other infectious/immune, Pump site infection",[1]; 750 mg/m^2 (n = 7),0
same,"Adverse events possibly or probably related to drug: Other, Hypoglycemia",[1]; 750 mg/m^2 (n = 7),0
same,"Adverse events possibly or probably related to drug: Other, Urticaria/anaphylaxis",[1]; 750 mg/m^2 (n = 7),1
same,Adverse events possibly or probably related to drug: URI,[1]; 750 mg/m^2 (n = 7),2
same,Adverse events possibly or probably related to drug: Vomiting,[1]; 750 mg/m^2 (n = 7),0
same,"Adverse events possibly or probably related to drug: Hematologic, Grade 1 Neutropenia",[1]; 750 mg/m^2 (n = 7),0
same,Adverse events possibly or probably related to drug: Abdominal Pain,[1]; 1000 mg/m^2 (n = 6),1
same,Adverse events possibly or probably related to drug: Congestion,[1]; 1000 mg/m^2 (n = 6),1
same,Adverse events possibly or probably related to drug: Cough,[1]; 1000 mg/m^2 (n = 6),1
same,Adverse events possibly or probably related to drug: Diarrhea,[1]; 1000 mg/m^2 (n = 6),0
same,Adverse events possibly or probably related to drug: Dizziness,[1]; 1000 mg/m^2 (n = 6),0
same,Adverse events possibly or probably related to drug: Gastrointestinal (Total),[1]; 1000 mg/m^2 (n = 6),2
same,"Adverse events possibly or probably related to drug: Hematologic, Anemia",[1]; 1000 mg/m^2 (n = 6),2
same,Adverse events possibly or probably related to drug: Hot flashes associated with viral illness,[1]; 1000 mg/m^2 (n = 6),1
same,Adverse events possibly or probably related to drug: Nausea,[1]; 1000 mg/m^2 (n = 6),1
same,Adverse events possibly or probably related to drug: Nausea with IV placement,[1]; 1000 mg/m^2 (n = 6),0
same,"Adverse events possibly or probably related to drug: Neurologic, Headache",[1]; 1000 mg/m^2 (n = 6),2
same,Adverse events possibly or probably related to drug: Other Viral Illness,[1]; 1000 mg/m^2 (n = 6),0
same,"Adverse events possibly or probably related to drug: Other infectious/immune, Pump site infection",[1]; 1000 mg/m^2 (n = 6),1
same,"Adverse events possibly or probably related to drug: Other, Hypoglycemia",[1]; 1000 mg/m^2 (n = 6),0
same,"Adverse events possibly or probably related to drug: Other, Urticaria/anaphylaxis",[1]; 1000 mg/m^2 (n = 6),0
same,Adverse events possibly or probably related to drug: URI,[1]; 1000 mg/m^2 (n = 6),2
same,Adverse events possibly or probably related to drug: Vomiting,[1]; 1000 mg/m^2 (n = 6),0
same,"Adverse events possibly or probably related to drug: Hematologic, Grade 1 Neutropenia",[1]; 1000 mg/m^2 (n = 6),0
same,Tolerability,"[1]; 3-month course of oral eflornithine, children and adults with recent-onset T1D",well tolerated with a favorable AE profile
same,Severity of adverse events noted,"[1]; daily oral doses of 125, 250, 500, 750, and 1000 mg/m^2, drug or placebo",Mild and moderate AEs
same,Unexpected drug-related effects,"[1]; individuals on active drug, daily oral doses of 125, 250, 500, 750, and 1000 mg/m^2",No unexpected effects judged related to drug
same,Effect on islet replication,islet replication,little effect on islet replication
